Measurements taken from US11370841B2, “Methods of treating fibroblast growth factor 19-mediated cancers and tumors” (NGM Biopharmaceuticals, Inc., priority 2016, dated 2022).

Assays:
[1] = test system: primary mouse hepatocytes; assay: In vitro pSTAT3 activation in primary mouse hepatocytes; format: cell-based
Method: Primary mouse hepatocytes were isolated from 8-10 week old wild type mice (BioReclamation/IVT). Cells were diluted in attachment media, and cells were plated on collagen-coated 6-well plate (Becton Dickinson). Four hours later, cells were changed into M199 media supplemented with 10% FBS, 2 mM glutamine, 100 unit/ml penicillin, 100 unit/ml streptomycin, and cultured for 16 hours at 37° C. When indicated, 50 ng/ml FGF19 protein or 50 ng/ml mouse IL-6 (Peprotech) were added.
Cell extracts were prepared in 50 mM Tris-Cl, PH 7.2, 150 mM NaCl, 1% NP-40, 0.1% SDS, 0.5% sodium deoxycholate supplemented with a protease inhibitor cocktail (Roche) and phosphatase inhibitors (Sigma, phosphatase inhibitor cocktail set 2 and set 3), and protein concentrations were determined by BCA protein assay (Thermo Scientific).
Immunoblotting. Cell or tissue lysates were mixed with 4×SDS sample loading buffer (50 mM Tris-Cl, pH6.8, 2.5% SDS, urea, 4% β-mercaptoethanol), heated for 10 minutes at 95° C., and separated on 4-20% SDS-polyacrylamide gels (Life Technologies) in 1×MOPS running buffer. Proteins were transferred onto PVDF membranes (GE Healthcare). Membranes were blocked in TBST buffer (20 mM Tris-Cl, pH 7.6, 137 mM NaCl, 0.1% Tween-20) containing 5% non-fat dry milk for 1 hour at room temperature, and incubated with anti-pSTAT3^Y705, anti-total STAT3, anti-pERK, anti-total ERK, or anti-β-actin antibodies in blocking buffer at 4° C. overnight. Membranes were washed in TBST extensively, and bound proteins were detected with horseradish peroxidase-conjugated goat-anti-mouse IgG or goat-anti-rabbit IgG antibodies (GE Healthcare) for 1 hour at room temperature. […]
To investigate an in vitro direct effect of FGF19 on STAT3 activation in isolated hepatocytes, pSTAT3^Y705 levels in primary cultures of hepatocytes upon FGF19 stimulation were analyzed by western blotting. […] Cell lysates were prepared at the indicated time points following FGF19 stimulation and analyzed for phosphorylation of the various proteins.

[2] = test system: STAT3; assay: In vivo pSTAT3 activation, immunoblot of liver lysates; conditions: db/db mice, 1 mg/kg FGF19 i.p.
Method: In vivo pSTAT3 activation.
Immunoblotting. Cell or tissue lysates were mixed with 4×SDS sample loading buffer (50 mM Tris-Cl, pH6.8, 2.5% SDS, urea, 4% β-mercaptoethanol), heated for 10 minutes at 95° C., and separated on 4-20% SDS-polyacrylamide gels (Life Technologies) in 1×MOPS running buffer. Proteins were transferred onto PVDF membranes (GE Healthcare). Membranes were blocked in TBST buffer (20 mM Tris-Cl, pH 7.6, 137 mM NaCl, 0.1% Tween-20) containing 5% non-fat dry milk for 1 hour at room temperature, and incubated with anti-pSTAT3^Y705, anti-total STAT3, anti-pERK, anti-total ERK, or anti-β-actin antibodies in blocking buffer at 4° C. overnight. Membranes were washed in TBST extensively, and bound proteins were detected with horseradish peroxidase-conjugated goat-anti-mouse IgG or goat-anti-rabbit IgG antibodies (GE Healthcare) for 1 hour at room temperature. Signals were developed with SuperSignal West Dura extended duration substrate (Thermo Scientific), and captured with a ChemiDoc XrS+ imaging system (Bio-Rad).
To examine STAT3 activation following FGF19 treatment in vivo, 11 week old diabetic db/db mice (on BKS background) were administered with 1 mg/kg of recombinant FGF19 protein i.p., and livers were harvested after 2 hours. Phosphorylation of STAT3 at tyrosine residue 705 (pSTAT3^Y705) was evident by immunoblotting of liver lysates (FIG. 1A). […]

[3] = test system: primary mouse hepatocytes; assay: In vitro BrdU incorporation in primary mouse hepatocytes; format: cell-based; conditions: 48 hours incubation
Method: (§1) FIGS. 2A-2E depict non-cell autonomous promotion of hepatocellular proliferation by FGF19. 11 week old mice (n=5 per group) were implanted with osmotic pumps releasing BrdU (8.5 mg/kg/day) and FGF19 protein (0.4 mg/kg/day). Livers were harvested 6 days post-implant. (FIG. 2A) Flow cytometry analysis of BrdU-labeled livers is shown. Representative histograms from hepatocytes stained with 7-ADD and anti-BrdU-APC are shown. (FIG. 2B) BrdU-positive hepatocytes as a percentage of total hepatocytes from vehicle (V)-treated (n=5) or FGF19-treated (n=5) mice were quantified by flow cytometry. (FIG. 2C) Shown are circulating FGF19 levels on day 6 post-implant of osmotic pumps. (FIG. 2D) Lack of proliferative effects of FGF19 on primary mouse hepatocytes. Primary cultures of hepatocytes isolated from mouse liver were incubated with recombinant FGF19 protein at the indicated concentrations for 48 hours and BrdU was added during the last 20 hours of incubation. BrdU incorporation was determined using a luminescence method. Mouse hepatocyte growth factor (mHGF) was included as a positive control. RLU, relative luminescence unit. (FIG. 2E) Lack of proliferative effects of FGF19 on primary human hepatocytes. Primary cultures of hepatocytes isolated from human liver were incubated with recombinant FGF19 protein. Human hepatocyte growth factor (hHGF) was included as a positive control. […]

[4] = test system: FGF19-induced HCC; assay: Tumorigenicity study in IL-6-deficient mice; format: in vivo; conditions: both Il6+/+ and Il6-/- mice, AAV-expressed FGF19
Method: Histology and immunohistochemistry. […] Hematoxylin and eosin staining was performed using standard methods. […] When indicated, sections were counterstained with hematoxylin.
Tumorigenicity study in IL-6-deficient mice. Il6^−/− mice were backcrossed to C57BL/6 mice for at least nine generations. Age and gender-matched wild type C57BL6 mice were used as Il6^+/+ controls. […] Body weight, body composition, and blood glucose were measured at designated times. Mice were euthanized 52 weeks post-AAV administration for liver tumor assessment.

[5] = test system: primary human hepatocytes; assay: In vitro BrdU incorporation in primary human hepatocytes; format: cell-based; conditions: purified primary human hepatocytes
Method: as §1

Substance: FGF19: Fibroblast growth factor 19, mature human 194 amino acid polypeptide (SEQ ID NO: 1); recombinant protein or AAV-expressed
- STAT3 phosphorylation (pSTAT3 Y705) by western blotting ([1]; isolated mouse hepatocytes, 50 ng/ml): did not enhance STAT3 phosphorylation
- Phosphorylation of ERK1 and ERK2 ([1]; primary cultures of mouse hepatocytes): apparent
- Phosphorylation of ERK1 and ERK2 in the liver ([2]; 2 hours): induced phosphorylation
- Phosphorylation of STAT3 at tyrosine residue 705 (pSTAT3 Y705) in liver lysates ([2]; livers harvested after 2 hours): evident
- BrdU signal [3]: no increase
- Body fat composition [4]: efficiently reduced
- Proliferative effect (BrdU incorporation) [5]: lack of direct proliferative effect
